Results from ChEMBL document CHEMBL6115030, “Systematic All-Hydrocarbon Stapling Analysis for Cecropin A Generates a Potent and Stable Antimicrobial Peptide” (J Med Chem, 2025).
In brackets after ≈: the same amount, converted by molar mass. Activity calls are given as the source filed them. No cut-off for these calls is given here. Bridge positions count the residues as written; N and C are the ends. Square brackets hold non-standard residues; d marks the D form. Peptide text beside a SMILES is read from it. * marks the point of attachment. S5 = C=CCCC[C@](C)(N)C(=O)O; X1 = CC[C@H](C)CCCCC(=O)*; dDab = NCC[C@@H](N)C(=O)O; Dab = NCC[C@H](N)C(=O)O

Legend:
[1] = tested on: Acinetobacter baumannii; test: Antibacterial activity against Pandrug-resistant Acinetobacter baumannii assessed as inhibition of bacterial growth measured after 24 hrs by broth microdilution method; format: functional
[2] = tested on: Pseudomonas aeruginosa; test: Antibacterial activity against Pandrug-resistant Pseudomonas aeruginosa assessed as inhibition of bacterial growth measured after 24 hrs by broth microdilution method; format: functional
[3] = Hemolytic activity in human RBC assessed as hemolysis incubated for 1 hr by microplate reader; format: toxicity, cell-based, Erythrocyte; conditions: erythrocyte, 1 h
[4] = tested on: Klebsiella pneumoniae; test: Antibacterial activity against Klebsiella pneumoniae ATCC 13883 assessed as inhibition of bacterial growth measured after 24 hrs by broth microdilution method; format: functional
[5] = tested on: Pseudomonas aeruginosa; test: Antibacterial activity against Pseudomonas aeruginosa PAO1 assessed as inhibition of bacterial growth measured after 24 hrs by broth microdilution method; format: functional
[6] = tested on: Klebsiella pneumoniae; test: Antibacterial activity against Carbapenem-resistant Klebsiella pneumoniae assessed as inhibition of bacterial growth measured after 24 hrs by broth microdilution method; format: functional
[7] = tested on: Pseudomonas aeruginosa; test: Antibacterial activity against Carbapenem-resistant Pseudomonas aeruginosa assessed as inhibition of bacterial growth measured after 24 hrs by broth microdilution method; format: functional
[8] = tested on: Staphylococcus aureus; test: Antibacterial activity against Staphylococcus aureus ATCC 25923 assessed as inhibition of bacterial growth measured after 24 hrs by broth microdilution method; format: functional
[9] = tested on: Salmonella typhimurium; test: Antibacterial activity against Salmonella typhimurium assessed as inhibition of bacterial growth measured after 24 hrs by broth microdilution method; format: functional, Salmonella enterica subsp. enterica serovar Typhimurium; conditions: Salmonella enterica
[10] = tested on: Shigella flexneri; test: Antibacterial activity against Shigella flexneri 301 assessed as inhibition of bacterial growth measured after 24 hrs by broth microdilution method; format: functional
[11] = tested on: Escherichia coli; test: In vivo antibacterial activity against Escherichia coli intraperitoneally injected into C57BL/6 mouse peritonitis model assessed as mouse survival at 2.5 mg/kg, ip measured after 48 hrs relative to control; format: functional
[12] = tested on: Escherichia coli; test: In vivo antibacterial activity against Escherichia coli intraperitoneally injected into C57BL/6 mouse peritonitis model assessed as reduction in bacterial load in blood at 2.5 mg/kg, ip measured after 48 hrs relative to control; format: functional, organism-based
[13] = tested on: Mus musculus; test: In vivo anti-inflammatory efficacy in Escherichia coli intraperitoneally injected into C57BL/6 mouse peritonitis model assessed as reduction in IL-6 level in blood at 2.5 mg/kg, ip measured after 48 hrs by ELISA; format: functional, organism-based
[14] = tested on: Escherichia coli; test: In vivo antibacterial activity against Escherichia coli intraperitoneally injected into C57BL/6 mouse peritonitis model assessed as reduction in bacterial load in liver at 2.5 mg/kg, ip measured after 48 hrs relative to control; format: functional, organism-based
[15] = tested on: Mus musculus; test: In vivo anti-inflammatory efficacy in Escherichia coli intraperitoneally injected into C57BL/6 mouse peritonitis model assessed as reduction in TNF-alpha level in blood at 2.5 mg/kg, ip measured after 48 hrs by ELISA; format: functional, organism-based
[16] = tested on: Escherichia coli; test: In vivo antibacterial activity against Escherichia coli intraperitoneally injected into C57BL/6 mouse peritonitis model assessed as reduction in bacterial load in lung at 2.5 mg/kg, ip measured after 48 hrs relative to control; format: functional, organism-based
[17] = tested on: Mus musculus; test: In vivo anti-inflammatory efficacy in Escherichia coli intraperitoneally injected into C57BL/6 mouse peritonitis model assessed as reduction in IL-1beta level in blood at 2.5 mg/kg, ip measured after 48 hrs by ELISA; format: functional, organism-based
[18] = tested on: Escherichia coli; test: In vivo antibacterial activity against Escherichia coli intraperitoneally injected into C57BL/6 mouse peritonitis model assessed as reduction in bacterial load in kidney at 2.5 mg/kg, ip measured after 48 hrs relative to control; format: functional, organism-based
[19] = tested on: Escherichia coli; test: In vivo antibacterial activity against Escherichia coli intraperitoneally injected into C57BL/6 mouse peritonitis model assessed as reduction in bacterial load in spleen at 2.5 mg/kg, ip measured after 48 hrs relative to control; format: functional, organism-based

Row | SMILES | MIC [1] [µM] | MIC [2] [µM] | Activity [3] | MIC [4] [µM] | MIC [5] [µM] | MIC [6] [µM] | MIC [7] [µM] | MIC [8] [µM] | MIC [9] [µM] | MIC [10] [µM] | Activity [11] [%] | Activity [12] | Activity [13] | Activity [14] | Activity [15] | Activity [16] | Activity [17] | Activity [18] | Activity [19]
1 | CC[C@H](C)[C@H](NC(=O)CNC(=O)[C@H](CC(=O)O)NC(=O)[C@H](CCCNC(=N)N)NC(=O)[C@@H](NC(=O)[C@H](CC(N)=O)NC(=O)[C@H](CCC(N)=O)NC(=O)CNC(=O)[C@@H](NC(=O)[C@H](CCCCN)NC(=O)[C@H](CCC(=O)O)NC(=O)[C@@H](NC(=O)[C@H](CCCCN)NC(=O)[C@H](CCCCN)NC(=O)[C@H](Cc1ccccc1)NC(=O)[C@H](CC(C)C)NC(=O)[C@H](CCCCN)NC(=O)[C@H](Cc1c[nH]c2ccccc12)NC(=O)[C@H](CCCCN)NC(C)=O)[C@@H](C)CC)C(C)C)[C@@H](C)CC)C(=O)N[C@H](C(=O)N[C@@H](CCCCN)C(=O)N[C@@H](C)C(=O)NCC(=O)N1CCC[C@H]1C(=O)N[C@@H](C)C(=O)N[C@@]1(C)CCC/C=C\CCC[C@@](C)(C(=O)N[C@@H](CCC(N)=O)C(=O)N[C@@H](C)C(=O)N[C@H](C(=O)N[C@@H](CCC(N)=O)C(=O)N[C@H](C(=O)N[C@@H](C)C(=O)N[C@@H](CCCCN)C(N)=O)[C@@H](C)CC)[C@@H](C)O)NC(=O)[C@H](C(C)C)NC(=O)[C@H](C(C)C)NC(=O)[C@H](C)NC1=O)[C@@H](C)CC (Ac-KWKLFKKIEKVGQNIRDGIIKAGPA[S5]AVV[S5]QATQIAK-NH2; staple (Z) 26-30) | < 0.78 | 25 (≈ 104 µg/mL) | Non-toxic | 3.13 (≈ 13 µg/mL) | 6.25 (≈ 25.9 µg/mL) | 12.5 (≈ 51.8 µg/mL) | > 100 | 3.13 (≈ 13 µg/mL) | 6.25 (≈ 25.9 µg/mL) | 1.56 (≈ 6.46 µg/mL) |  |  |  |  |  |  |  |  | 
2 | CC(C)CCCCC(=O)N[C@@H](CCN)C(=O)N[C@H](C(=O)N[C@@H](CCN)C(=O)N[C@H]1CCNC(=O)[C@H]([C@@H](C)O)NC(=O)[C@H](CCN)NC(=O)[C@H](CCN)NC(=O)[C@H](CC(C)C)NC(=O)[C@@H](Cc2ccccc2)NC(=O)[C@H](CCN)NC1=O)[C@@H](C)O.CC[C@H](C)CCCCC(=O)N[C@@H](CCN)C(=O)N[C@H](C(=O)N[C@@H](CCN)C(=O)N[C@H]1CCNC(=O)[C@H]([C@@H](C)O)NC(=O)[C@H](CCN)NC(=O)[C@H](CCN)NC(=O)[C@H](CC(C)C)NC(=O)[C@@H](Cc2ccccc2)NC(=O)[C@H](CCN)NC1=O)[C@@H](C)O (X1-[Dab]T[Dab][Dab][Dab][dF]L[Dab][Dab]T; lactam 4-C) |  |  |  |  |  |  |  |  |  |  | 100 |  |  |  |  |  |  |  | 
3 | CC[C@H](C)[C@H](NC(=O)CNC(=O)[C@H](CC(=O)O)NC(=O)[C@H](CCCNC(=N)N)NC(=O)[C@@H](NC(=O)[C@H](CC(N)=O)NC(=O)[C@H](CCC(N)=O)NC(=O)CNC(=O)[C@@H](NC(=O)[C@H](CCCCN)NC(=O)[C@H](CCC(=O)O)NC(=O)[C@@H](NC(=O)[C@H](CCCCN)NC(=O)[C@H](CCCCN)NC(=O)[C@H](Cc1ccccc1)NC(=O)[C@H](CC(C)C)NC(=O)[C@H](CCCCN)NC(=O)[C@H](Cc1c[nH]c2ccccc12)NC(=O)[C@H](CCCCN)NC(C)=O)[C@@H](C)CC)C(C)C)[C@@H](C)CC)C(=O)N[C@H](C(=O)N[C@@H](CCCCN)C(=O)N[C@@H](C)C(=O)NCC(=O)N1CCC[C@H]1C(=O)N[C@@H](C)C(=O)N[C@H](C(=O)N[C@@H](C)C(=O)N[C@H](C(=O)N[C@H](C(=O)NCC(=O)N[C@@H](CCC(N)=O)C(=O)N[C@@]1(C)CCC/C=C/CCC[C@@](C)(C(=O)N[C@@H](CCCCN)C(N)=O)NC(=O)[C@H]([C@@H](C)CC)NC(=O)[C@H](CCC(N)=O)NC(=O)[C@H]([C@@H](C)O)NC1=O)C(C)C)C(C)C)C(C)C)[C@@H](C)CC (Ac-KWKLFKKIEKVGQNIRDGIIKAGPAVAVVGQ[S5]TQI[S5]K-NH2; staple (E) 32-36) | < 0.78 | 25 (≈ 104 µg/mL) |  | 3.13 (≈ 13 µg/mL) | 6.25 (≈ 26 µg/mL) | 3.13 (≈ 13 µg/mL) | > 100 | 1.56 (≈ 6.48 µg/mL) | 3.13 (≈ 13 µg/mL) | < 0.78 |  |  |  |  |  |  |  |  | 
4 | CC[C@H](C)[C@H](NC(=O)CNC(=O)[C@H](CC(=O)O)NC(=O)[C@H](CCCNC(=N)N)NC(=O)[C@@H](NC(=O)[C@H](CC(N)=O)NC(=O)[C@H](CCC(N)=O)NC(=O)CNC(=O)[C@@H](NC(=O)[C@H](CCCCN)NC(=O)[C@H](CCC(=O)O)NC(=O)[C@@H](NC(=O)[C@H](CCCCN)NC(=O)[C@H](CCCCN)NC(=O)[C@H](Cc1ccccc1)NC(=O)[C@H](CC(C)C)NC(=O)[C@H](CCCCN)NC(=O)[C@H](Cc1c[nH]c2ccccc12)NC(=O)[C@H](CCCCN)NC(C)=O)[C@@H](C)CC)C(C)C)[C@@H](C)CC)C(=O)N[C@H](C(=O)N[C@@H](CCCCN)C(=O)N[C@@H](C)C(=O)NCC(=O)N1CCC[C@H]1C(=O)N[C@@H](C)C(=O)N[C@H](C(=O)N[C@@H](C)C(=O)N[C@@]1(C)CCC/C=C\CCC[C@@](C)(C(=O)N[C@H](C(=O)N[C@@H](CCC(N)=O)C(=O)N[C@H](C(=O)N[C@@H](C)C(=O)N[C@@H](CCCCN)C(N)=O)[C@@H](C)CC)[C@@H](C)O)NC(=O)[C@H](CCC(N)=O)NC(=O)CNC(=O)[C@H](C(C)C)NC1=O)C(C)C)[C@@H](C)CC (Ac-KWKLFKKIEKVGQNIRDGIIKAGPAVA[S5]VGQ[S5]TQIAK-NH2; staple (Z) 28-32) | < 0.78 | 25 (≈ 103 µg/mL) |  | 3.13 (≈ 12.9 µg/mL) | 6.25 (≈ 25.8 µg/mL) | 6.25 (≈ 25.8 µg/mL) | > 100 | 3.13 (≈ 12.9 µg/mL) | 6.25 (≈ 25.8 µg/mL) | 1.56 (≈ 6.44 µg/mL) |  |  |  |  |  |  |  |  | 
5 | CC[C@H](C)[C@H](NC(=O)CNC(=O)[C@H](CC(=O)O)NC(=O)[C@H](CCCNC(=N)N)NC(=O)[C@@H](NC(=O)[C@H](CC(N)=O)NC(=O)[C@H](CCC(N)=O)NC(=O)CNC(=O)[C@@H](NC(=O)[C@H](CCCCN)NC(=O)[C@H](CCC(=O)O)NC(=O)[C@@H](NC(=O)[C@H](CCCCN)NC(=O)[C@H](CCCCN)NC(=O)[C@H](Cc1ccccc1)NC(=O)[C@H](CC(C)C)NC(=O)[C@H](CCCCN)NC(=O)[C@H](Cc1c[nH]c2ccccc12)NC(=O)[C@H](CCCCN)NC(C)=O)[C@@H](C)CC)C(C)C)[C@@H](C)CC)C(=O)N[C@H](C(=O)N[C@@H](CCCCN)C(=O)N[C@@H](C)C(=O)NCC(=O)N1CCC[C@H]1C(=O)N[C@@]1(C)CCC/C=C\CCC[C@@](C)(C(=O)NCC(=O)N[C@@H](CCC(N)=O)C(=O)N[C@@H](C)C(=O)N[C@H](C(=O)N[C@@H](CCC(N)=O)C(=O)N[C@H](C(=O)N[C@@H](C)C(=O)N[C@@H](CCCCN)C(N)=O)[C@@H](C)CC)[C@@H](C)O)NC(=O)[C@H](C(C)C)NC(=O)[C@H](C)NC(=O)[C@H](C(C)C)NC1=O)[C@@H](C)CC (Ac-KWKLFKKIEKVGQNIRDGIIKAGP[S5]VAV[S5]GQATQIAK-NH2; staple (Z) 25-29) | < 0.78 | 25 (≈ 103 µg/mL) | Non-toxic | 3.13 (≈ 12.9 µg/mL) | 6.25 (≈ 25.8 µg/mL) | 6.25 (≈ 25.8 µg/mL) | > 100 | 3.13 (≈ 12.9 µg/mL) | 3.13 (≈ 12.9 µg/mL) | 1.56 (≈ 6.44 µg/mL) |  |  |  |  |  |  |  |  | 
6 | CC(C)CCCCC(=O)N[C@@H](CCN)C(=O)N[C@H](C(=O)N[C@@H](CCN)C(=O)N[C@H]1CCNC(=O)[C@H]([C@@H](C)O)NC(=O)[C@H](CCN)NC(=O)[C@H](CCN)NC(=O)[C@H](CC(C)C)NC(=O)[C@@H](Cc2ccccc2)NC(=O)[C@@H](CCN)NC1=O)[C@@H](C)O.CC[C@H](C)CCCCC(=O)N[C@@H](CCN)C(=O)N[C@H](C(=O)N[C@@H](CCN)C(=O)N[C@H]1CCNC(=O)[C@H]([C@@H](C)O)NC(=O)[C@H](CCN)NC(=O)[C@H](CCN)NC(=O)[C@H](CC(C)C)NC(=O)[C@@H](Cc2ccccc2)NC(=O)[C@@H](CCN)NC1=O)[C@@H](C)O (X1-[Dab]T[Dab][Dab][dDab][dF]L[Dab][Dab]T; lactam 4-C) |  |  |  |  |  |  |  |  |  |  |  | Active | Active | Active | Active | Active | Active | Active | Active
